Measurements reported in PMC10044120, “Potent and selective covalent inhibition of the papain-like protease from SARS-CoV-2” (Nature Communications, 2023).
Read-outs that look alike come from different tables or passages of the source.

Key:
[1] = target: T1, USP2 (Homo sapiens, UniProt O75604); assay: biochemical; settings: USP2 10 nM, Ub-rhodamine110
T1 construct: USP2c, USP4, USP7, USP8c, USP15, USP30WT, and UCH-L1; purchased LifeSensors, Inc. (Malvern, PA)

[2] = target: T2, USP15 (Homo sapiens, UniProt Q9Y4E8); assay: DUB selectivity assay, USP15 (Ub-rhodamine110); format: biochemical
T2 construct: purchased LifeSensors, Inc. (Malvern, PA)
T2 sequence (Q9Y4E8 1-981): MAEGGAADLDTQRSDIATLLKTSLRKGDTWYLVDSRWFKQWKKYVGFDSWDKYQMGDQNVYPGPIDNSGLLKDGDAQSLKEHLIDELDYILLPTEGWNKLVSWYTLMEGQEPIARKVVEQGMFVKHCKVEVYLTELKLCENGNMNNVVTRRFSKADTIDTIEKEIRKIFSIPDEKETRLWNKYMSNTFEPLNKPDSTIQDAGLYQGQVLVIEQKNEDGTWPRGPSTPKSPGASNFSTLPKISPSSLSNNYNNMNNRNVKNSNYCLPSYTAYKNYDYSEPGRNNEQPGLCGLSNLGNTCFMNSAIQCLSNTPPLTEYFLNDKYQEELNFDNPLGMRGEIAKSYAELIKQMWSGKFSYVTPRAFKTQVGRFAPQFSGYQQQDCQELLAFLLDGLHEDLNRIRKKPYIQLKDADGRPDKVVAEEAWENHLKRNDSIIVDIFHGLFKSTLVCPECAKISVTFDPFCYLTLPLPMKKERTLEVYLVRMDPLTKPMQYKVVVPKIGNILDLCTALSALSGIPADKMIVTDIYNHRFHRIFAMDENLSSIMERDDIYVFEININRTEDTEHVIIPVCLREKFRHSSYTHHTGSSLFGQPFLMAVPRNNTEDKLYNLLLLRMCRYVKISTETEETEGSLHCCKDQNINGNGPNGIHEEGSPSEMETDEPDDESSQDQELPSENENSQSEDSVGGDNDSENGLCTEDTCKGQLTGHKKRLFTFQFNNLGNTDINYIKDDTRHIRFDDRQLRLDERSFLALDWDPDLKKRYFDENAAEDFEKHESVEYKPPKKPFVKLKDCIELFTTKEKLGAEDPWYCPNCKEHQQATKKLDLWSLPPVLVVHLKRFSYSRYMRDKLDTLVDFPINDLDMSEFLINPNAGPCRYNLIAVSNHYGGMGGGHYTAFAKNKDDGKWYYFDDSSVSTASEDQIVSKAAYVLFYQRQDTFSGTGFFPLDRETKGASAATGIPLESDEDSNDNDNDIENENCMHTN

[3] = target: T3, USP4 (Homo sapiens, UniProt Q13107); assay: DUB selectivity assay, USP4 (Ub-rhodamine110); format: biochemical
T3 construct: purchased LifeSensors, Inc. (Malvern, PA)
T3 sequence (Q13107 1-963): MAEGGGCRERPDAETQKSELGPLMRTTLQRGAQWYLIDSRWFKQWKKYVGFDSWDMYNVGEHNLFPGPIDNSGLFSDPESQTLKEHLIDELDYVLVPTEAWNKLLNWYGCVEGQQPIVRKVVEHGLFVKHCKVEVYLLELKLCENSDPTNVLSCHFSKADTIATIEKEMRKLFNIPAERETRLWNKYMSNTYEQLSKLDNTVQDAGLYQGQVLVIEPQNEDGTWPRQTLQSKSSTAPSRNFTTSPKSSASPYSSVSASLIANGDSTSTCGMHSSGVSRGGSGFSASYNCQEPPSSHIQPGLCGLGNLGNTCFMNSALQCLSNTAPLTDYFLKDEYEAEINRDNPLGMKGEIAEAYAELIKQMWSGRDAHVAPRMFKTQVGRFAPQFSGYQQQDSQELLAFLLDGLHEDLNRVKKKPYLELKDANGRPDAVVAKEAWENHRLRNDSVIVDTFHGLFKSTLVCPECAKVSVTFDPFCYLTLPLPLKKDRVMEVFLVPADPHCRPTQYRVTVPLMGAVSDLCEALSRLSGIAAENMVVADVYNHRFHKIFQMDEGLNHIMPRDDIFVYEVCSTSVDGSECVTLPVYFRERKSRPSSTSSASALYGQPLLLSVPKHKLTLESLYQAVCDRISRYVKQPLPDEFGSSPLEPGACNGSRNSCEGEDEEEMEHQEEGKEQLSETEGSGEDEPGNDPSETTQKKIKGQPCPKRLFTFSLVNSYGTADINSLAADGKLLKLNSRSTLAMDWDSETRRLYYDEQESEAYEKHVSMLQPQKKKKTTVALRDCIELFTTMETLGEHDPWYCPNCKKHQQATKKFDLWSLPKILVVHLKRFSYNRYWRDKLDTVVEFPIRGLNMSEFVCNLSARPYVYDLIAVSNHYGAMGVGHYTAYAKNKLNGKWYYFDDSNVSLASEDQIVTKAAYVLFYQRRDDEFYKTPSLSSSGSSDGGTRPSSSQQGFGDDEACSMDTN

[4] = tested on: SARS-CoV-2 USA-WA1/2020; assay: microbe, parasite or virus in culture; format: cell-based; settings: for Virus Titer: USA-WA1/2020
[5] = in vitro; settings: human
[6] = Pharmacokinetics in male ICR mice (IV and PO)
[7] = tested on: SARS-CoV-2 Delta (B.1.617.2); assay: CPE assay, neutral red, Vero E6 cells with 2 μM CP-100356, Delta; format: cell-based; settings: Severe acute respiratory syndrome coronavirus 2, Vero C1008
[8] = tested on: SARS-CoV-2 Delta (B.1.617.2); assay: microbe, parasite or virus in culture; format: cell-based; settings: Severe acute respiratory syndrome coronavirus 2; Delta (B1.617.2), Caco-2
[9] = in vitro; settings: African green monkey
[10] = tested on: Vero E6 cells; settings: African green monkey, 48 h
[11] = male, ICR (CD-1), mouse, plasma, iv, 3 mg/kg

T1 sequence (O75604 267-599): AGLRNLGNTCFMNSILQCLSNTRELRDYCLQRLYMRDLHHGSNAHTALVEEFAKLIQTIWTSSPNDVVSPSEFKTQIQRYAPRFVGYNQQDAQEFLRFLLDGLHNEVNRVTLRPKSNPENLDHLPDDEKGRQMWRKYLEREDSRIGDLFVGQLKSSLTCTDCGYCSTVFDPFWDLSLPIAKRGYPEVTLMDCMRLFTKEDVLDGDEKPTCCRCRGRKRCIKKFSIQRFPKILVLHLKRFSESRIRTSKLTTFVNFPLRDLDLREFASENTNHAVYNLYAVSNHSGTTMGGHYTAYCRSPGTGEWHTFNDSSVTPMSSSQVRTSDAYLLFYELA

SMILES: COC(=O)/C=C/C(=O)NNC(=O)CCc1ccccc1C(=O)N[C@H](C)c1cccc2ccccc12 [Compound 7, methyl(R,E)-4-(2-(3-(2-((1-(naphthalen-1 yl)ethyl)carbamoyl)phenyl)propanoyl)hydrazineyl)-4-oxobut-2-enoate]
- IC50 [1]: > 30 µM
- IC50 [2]: > 30 µM
- IC50 [3]: > 30 µM
- EC90 ([4]; Severe acute respiratory syndrome coronavirus 2, Caco-2): 0.26 µM
- Virus Titer ([4]; 0.01 µM): 4.0 CCID50/mL (Log10)
- Virus Titer ([4]; 0.1 µM): 1.7 CCID50/mL (Log10)
- Virus Titer ([4]; 1 µM): <0.7 CCID50/mL (Log10)
- Virus Titer ([4]; 10 µM): <0.7 CCID50/mL (Log10)
- CC50 [5]: > 10 µM
- cytotoxicity at 0.01 µM [5]: 8.4%
- cytotoxicity at 0.1 µM [5]: 3.4%
- cytotoxicity at 1 µM [5]: 0.326%
- cytotoxicity at 10 µM [5]: 18.1%
- cytotoxicity at 0.01 µM ([5]; Percent Cytotoxicity (Neutral Red), Caco-2, SARS2-740 (Delta set), 0.01 µM): 0%
- cytotoxicity at 0.1 µM ([5]; Percent Cytotoxicity (Neutral Red), Caco-2, SARS2-740 (Delta set), 0.1 µM): 0%
- cytotoxicity at 1 µM ([5]; Percent Cytotoxicity (Neutral Red), Caco-2, SARS2-740 (Delta set), 1 µM): 8%
- cytotoxicity at 10 µM ([5]; Percent Cytotoxicity (Neutral Red), Caco-2, SARS2-740 (Delta set), 10 µM): 4.4%
- cytotoxicity at 0.01 µM ([5]; Percent Cytotoxicity (Neutral Red), Caco-2, SARS2-740 (USA-WA1/2020 set), 0.01 µM): 1.6%
- cytotoxicity at 0.1 µM ([5]; Percent Cytotoxicity (Neutral Red), Caco-2, SARS2-740 (USA-WA1/2020 set), 0.1 µM): 0%
- cytotoxicity at 1 µM ([5]; Percent Cytotoxicity (Neutral Red), Caco-2, SARS2-740 (USA-WA1/2020 set), 1 µM): 0%
- cytotoxicity at 10 µM ([5]; Percent Cytotoxicity (Neutral Red), Caco-2, SARS2-740 (USA-WA1/2020 set), 10 µM): 39.6%
- oral bioavailability / exposure following PO dosing ([6]; 10 mg/kg p.o., male ICR mice): not orally bioavailable
- AUC(0-inf) [6, 11]: 5 ng·h/mL
- AUC(0-t) [6, 11]: 4 ng·h/mL
- C0 [6, 11]: 63 ng/mL
- Vd [6, 11]: 35.2 L/kg
- half-life [6, 11]: 3.6 min
- EC50 [7]: 0.29 µM
- EC90 [8]: > 10 µM

SMILES: C[C@@H](NC(=O)c1ccccc1CCC(=O)NNC(=O)CCl)c1cccc2ccccc12 [Compound 9, (R)-2-(3-(2-(2-chloroacetyl)hydrazineyl)-3-oxopropyl)-N-(1-(naphthalen-1-yl)ethyl)benzamide]
- IC50 [1]: > 30 µM
- IC50 ([2]; USP15 1 nM, Ub-rhodamine110, read-out: IC50): > 30 µM
- IC50 ([3]; USP4 10 nM, Ub-rhodamine110, read-out: IC50): > 30 µM
- CC50 at 48 h ([9]; CC50): > 30 µM
- viability at 48 h, 2.08 µM ([9]; cytotoxicity, %cell viability): 102%
- viability at 48 h, 8.33 µM ([9]; cytotoxicity, %cell viability): 99.1%
- viability at 48 h, 16.65 µM ([9]; cytotoxicity, %cell viability): 91.4%
- cytotoxicity, %cell viability ([10]; 2.08 µM): 100.620%
- cytotoxicity, %cell viability ([10]; 8.33 µM): 103.333%
- cytotoxicity, %cell viability ([10]; 16.65 µM): 94.042%
